Measured values: ChEMBL document CHEMBL1201862, “PubChem BioAssay data set” (2004)
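All cell lines were grown in 96-well plates and treated with compound for 48 hours. GI50 = concentration required for 50% inhibition of growth.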 Calls of active or inactive are those of the source. Cut-off read from the data, not from the text of the source: active = GI50 up to about 1.1 µM and inactive = higher.

Key:
Test in all cases: NCI-60 cell line screen, 48 h
OVCAR-4 = system: OVCAR-4
NCI-H226 = system: NCI-H226
UACC-257 = system: UACC-257
OVCAR-5 = system: OVCAR-5
SF-539 = system: SF-539
M14 = system: M14
OVCAR-3 = system: OVCAR-3
A549 = system: A549
SK-MEL-5 = system: SK-MEL-5
Hs-578T = system: Hs-578T
SF-295 = system: SF-295
EKVX = system: EKVX
ACHN = system: ACHN
A498 = system: A498
MOLT-4 = system: MOLT-4
DU-145 = system: DU-145
TK-10 = system: TK-10
RXF 393 = system: RXF 393
IGROV-1 = system: IGROV-1
SK-OV-3 = system: SK-OV-3

Measured: GI50

COC(=O)[C@@H]1CN(C(=O)Cc2ccccc2)C(=O)N1
inactive: OVCAR-4 > 100 µM | NCI-H226 > 100 µM | UACC-257 > 100 µM | OVCAR-5 > 100 µM | SF-539 > 100 µM | M14 > 100 µM | OVCAR-3 > 100 µM | A549 > 100 µM | SK-MEL-5 > 100 µM | Hs-578T > 100 µM | SF-295 > 100 µM | EKVX > 100 µM | ACHN > 100 µM | A498 > 100 µM | MOLT-4 > 100 µM | DU-145 > 100 µM | TK-10 > 100 µM | RXF 393 > 100 µM | IGROV-1 > 100 µM

CC(C)(C)[Si](C)(C)OC[C@H](/C=C\CCCC(=O)O)NC1(c2ccccc2)c2ccccc2-c2ccccc21
inactive: OVCAR-4 14.8 µM | NCI-H226 11.6 µM | UACC-257 10.2 µM | OVCAR-5 23.2 µM | SF-539 16.3 µM | M14 16.8 µM | OVCAR-3 12.5 µM | A549 10.7 µM | SK-MEL-5 11.2 µM | Hs-578T 20 µM | SF-295 16.4 µM | EKVX 12.2 µM | ACHN 11.8 µM | A498 17.5 µM | MOLT-4 5.52 µM | DU-145 25.9 µM | TK-10 24.3 µM | RXF 393 10.2 µM | IGROV-1 16.7 µM | SK-OV-3 20.4 µM

CCOP(=O)(CCC(O)CNc1nc(N)nc(Cl)c1/N=N/c1ccc(Cl)cc1)OCC (centres undefined)
inactive: OVCAR-4 5.24 µM | NCI-H226 16.6 µM | UACC-257 13.6 µM | OVCAR-5 17.6 µM | SF-539 > 10 µM | OVCAR-3 10.7 µM | A549 14.5 µM | SK-MEL-5 12.7 µM | Hs-578T 5.58 µM | SF-295 14.3 µM | EKVX 18.8 µM | ACHN 7 µM | A498 10.1 µM | MOLT-4 6.95 µM | DU-145 14.2 µM | TK-10 14.8 µM | RXF 393 6.31 µM | IGROV-1 15.2 µM | SK-OV-3 17.7 µM

O=C(Cc1ccccc1)NN1C(=O)/C(=C\c2cccc(O)c2)S/C1=N\c1ccccc1
inactive: OVCAR-4 > 100 µM | NCI-H226 > 100 µM | UACC-257 > 100 µM | OVCAR-5 > 100 µM | SF-539 > 100 µM | M14 > 100 µM | OVCAR-3 83.4 µM | A549 > 100 µM | SK-MEL-5 > 100 µM | Hs-578T > 100 µM | SF-295 > 100 µM | EKVX > 100 µM | ACHN > 100 µM | A498 > 100 µM | DU-145 > 100 µM | TK-10 > 100 µM | RXF 393 > 100 µM | IGROV-1 > 100 µM | SK-OV-3 > 100 µM

COc1ccc(/C=C/c2ccnc3ccccc23)cc1
inactive: OVCAR-4 3.03 µM | NCI-H226 21.9 µM | UACC-257 15.3 µM | OVCAR-5 21.4 µM | SF-539 21.8 µM | M14 17.3 µM | OVCAR-3 13.4 µM | A549 15.4 µM | SK-MEL-5 14.3 µM | Hs-578T 22.6 µM | SF-295 16.9 µM | EKVX 13.1 µM | ACHN 13.9 µM | A498 14.1 µM | MOLT-4 12.2 µM | DU-145 14.8 µM | TK-10 16.2 µM | RXF 393 19.3 µM | IGROV-1 17.3 µM | SK-OV-3 19.1 µM

O=C1C=CC(=O)C1(Br)Br
inactive: OVCAR-4 17.6 µM | NCI-H226 19 µM | UACC-257 16.1 µM | OVCAR-5 10.7 µM | SF-539 16.4 µM | M14 18.1 µM | OVCAR-3 12.9 µM | A549 13.8 µM | SK-MEL-5 16.9 µM | Hs-578T 17.9 µM | SF-295 17.2 µM | EKVX 14.5 µM | ACHN 6.75 µM | A498 13.2 µM | MOLT-4 14.7 µM | DU-145 16 µM | TK-10 2.67 µM | RXF 393 6.37 µM | IGROV-1 5.01 µM | SK-OV-3 21 µM

COc1ccc(-c2c3c(nc4nc(SC)nc(SC)c24)CCCC3)cc1OC
inactive: NCI-H226 56.6 µM | UACC-257 > 100 µM | OVCAR-5 > 100 µM | SF-539 > 100 µM | M14 81.7 µM | OVCAR-3 65.5 µM | A549 > 100 µM | SK-MEL-5 80.2 µM | Hs-578T 19.1 µM | SF-295 57.5 µM | EKVX 70 µM | ACHN 72.4 µM | A498 > 100 µM | MOLT-4 33.4 µM | DU-145 > 100 µM | TK-10 38.5 µM | RXF 393 25.9 µM | IGROV-1 > 100 µM | SK-OV-3 > 100 µM

CC(=O)N1N=C(c2ccc3ccccc3c2O)CC1c1cccs1 (centres undefined)
inactive: OVCAR-4 27.8 µM | NCI-H226 40.1 µM | UACC-257 34.8 µM | OVCAR-5 32.4 µM | SF-539 22.2 µM | M14 14.4 µM | OVCAR-3 7.96 µM | A549 13.9 µM | SK-MEL-5 18.3 µM | Hs-578T 28.6 µM | SF-295 21.7 µM | ACHN 15.6 µM | A498 12.7 µM | MOLT-4 4.26 µM | DU-145 34 µM | TK-10 25 µM | RXF 393 15.7 µM | IGROV-1 11.4 µM | SK-OV-3 44.3 µM

O=c1c(C(c2ccccn2)c2c(O)oc3cc(O)ccc3c2=O)c(O)oc2cc(O)ccc12
inactive: NCI-H226 > 100 µM | UACC-257 > 100 µM | OVCAR-5 > 100 µM | SF-539 > 100 µM | M14 > 100 µM | OVCAR-3 > 100 µM | A549 > 100 µM | SK-MEL-5 > 100 µM | Hs-578T > 100 µM | SF-295 > 100 µM | EKVX > 100 µM | ACHN > 100 µM | A498 > 100 µM | MOLT-4 > 100 µM | DU-145 > 100 µM | TK-10 > 100 µM | RXF 393 > 100 µM | IGROV-1 > 100 µM | SK-OV-3 > 100 µM
